{"source": "patent US20050123560A1", "about": "“High purity and water dispersible extract and formulations of larrea tridentata leaf resin, and methods of making and using the same” (priority 2003, published 2005)", "key": {"[1]": {"details": "animal studies, ingestion; cited from earlier work"}, "[2]": {"experiment": "Reduction of oxidized NDGA in methanolic solution by reducing agents, followed by chromatography", "details": "reducing agent at 100 mg/ml in methanolic solution of oxidized NDGA"}}}
{"smiles": "CC(Cc1ccc(O)c(O)c1)C(C)Cc1ccc(O)c(O)c1", "note": "(stereo not drawn) [NDGA, nordihydroguaiaretic acid]", "values": [{"measurement": "kidney toxicity", "setting": "[1]", "result": "evidence of kidney toxicity"}]}
{"smiles": "O=C1O[C@H]([C@@H](O)CO)C(O)=C1O", "note": "[ascorbic acid]", "values": [{"measurement": "time to reduce oxidized NDGA", "setting": "[2]", "result": "approximately 1 minute"}]}
{"smiles": "O=S([O-])S(=O)[O-].[Na+].[Na+]", "note": "[sodium hydrosulfite]", "values": [{"measurement": "NDGA quinone remaining by chromatography after reduction", "setting": "[2]", "result": "still detectable"}]}
